Laboratory results published in ChEMBL document CHEMBL1201862, “PubChem BioAssay data set” (2004).
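Exposure lasted 48 hours, with cells grown in 96-well plates and compounds tested at five concentrations. GI50 is the concentration that inhibits growth by half.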 The source made the active and inactive calls. Cut-off read from the data, not from the text of the source: active = GI50 up to about 1.1 µM and inactive = higher.

Legend:
Experiment in all cases: growth of human tumour cells (NCI), 48 h
SW-620 = tested on: SW-620
SN12C = tested on: SN12C
NCI-H460 = tested on: NCI-H460
OVCAR-3 = tested on: OVCAR-3
OVCAR-5 = tested on: OVCAR-5
NCI/ADR-RES = tested on: NCI/ADR-RES
SK-MEL-28 = tested on: SK-MEL-28
KM12 = tested on: KM12
MDA-MB-435 = tested on: MDA-MB-435
786-0 = tested on: 786-0
MOLT-4 = tested on: MOLT-4
MDA-MB-231 = tested on: MDA-MB-231
SK-MEL-2 = tested on: SK-MEL-2
SF-268 = tested on: SF-268
ACHN = tested on: ACHN
HT-29 = tested on: HT-29
Malme-3M = tested on: Malme-3M
Hs-578T = tested on: Hs-578T
HOP-92 = tested on: HOP-92
HCT-15 = tested on: HCT-15

SMILES	GI50 (SW-620)	GI50 (SN12C)	GI50 (NCI-H460)	GI50 (OVCAR-3)	GI50 (OVCAR-5)	GI50 (NCI/ADR-RES)	GI50 (SK-MEL-28)	GI50 (KM12)	GI50 (MDA-MB-435)	GI50 (786-0)	GI50 (MOLT-4)	GI50 (MDA-MB-231)	GI50 (SK-MEL-2)	GI50 (SF-268)	GI50 (ACHN)	GI50 (HT-29)	GI50 (Malme-3M)	GI50 (Hs-578T)	GI50 (HOP-92)	GI50 (HCT-15) [µM]
CC(C#N)Nc1ccc(Oc2ccc(C(C)(C)c3ccc(Oc4ccc(NC(C)C#N)cc4)cc3)cc2)cc1 (centres undefined)	> 100 µM (inactive)	> 100 µM (inactive)	> 100 µM (inactive)	> 100 µM (inactive)	> 100 µM (inactive)	> 100 µM (inactive)	> 100 µM (inactive)	> 100 µM (inactive)	> 100 µM (inactive)	> 100 µM (inactive)	16.5 µM (inactive)	> 100 µM (inactive)	> 100 µM (inactive)	86.5 µM (inactive)	> 100 µM (inactive)	> 100 µM (inactive)	> 100 µM (inactive)	18 µM (inactive)	31.4 µM (inactive)	> 100
C(/Cc1ccc2c(c1)OCO2)=N\N=C1NCCCCN1	> 100 µM (inactive)	73.6 µM (inactive)	45.8 µM (inactive)	> 100 µM (inactive)	34.7 µM (inactive)	> 100 µM (inactive)	> 100 µM (inactive)	88.3 µM (inactive)	> 100 µM (inactive)	> 100 µM (inactive)	48.4 µM (inactive)	76.2 µM (inactive)	> 100 µM (inactive)	> 100 µM (inactive)	> 100 µM (inactive)	47.8 µM (inactive)	> 100 µM (inactive)	> 100 µM (inactive)	32.8 µM (inactive)	> 100
NC[C@H]1Nc2ccccc2[C@@H](O)C1O (some centres undefined)	> 100 µM (inactive)	> 100 µM (inactive)	> 100 µM (inactive)	> 100 µM (inactive)	> 100 µM (inactive)	> 100 µM (inactive)	> 100 µM (inactive)	> 100 µM (inactive)	> 100 µM (inactive)	> 100 µM (inactive)	> 100 µM (inactive)	> 100 µM (inactive)	> 100 µM (inactive)	> 100 µM (inactive)	> 100 µM (inactive)	> 100 µM (inactive)	> 100 µM (inactive)	> 100 µM (inactive)	> 100 µM (inactive)	> 100
O=C1C=CC(O)C2C1CC13SSC4(CC5C(=O)C=CC(O)C5N4C1=O)C(=O)N23 (centres undefined)	0.0324 µM (active)	0.0601 µM (active)	0.681 µM (active)	0.0845 µM (active)	0.0634 µM (active)	0.0545 µM (active)	0.302 µM (active)	0.0885 µM (active)	0.164 µM (active)	0.0396 µM (active)	0.0109 µM (active)	0.281 µM (active)	0.796 µM (active)	0.847 µM (active)	0.0745 µM (active)	0.0426 µM (active)	0.33 µM (active)	0.5 µM (active)	0.0966 µM (active)	0.14
CC(=O)NC(Cc1c[nH]c2ccccc12)C(=O)O (centres undefined)	> 100 µM (inactive)	> 100 µM (inactive)	> 100 µM (inactive)	> 100 µM (inactive)	> 100 µM (inactive)	> 100 µM (inactive)	> 100 µM (inactive)	> 100 µM (inactive)	> 100 µM (inactive)	> 100 µM (inactive)		> 100 µM (inactive)	> 100 µM (inactive)	> 100 µM (inactive)	> 100 µM (inactive)	> 100 µM (inactive)	> 100 µM (inactive)	> 100 µM (inactive)	> 100 µM (inactive)	> 100
CC(O)/C=C/C1OC(=O)CC1Nc1ccc(C=O)cc1 (centres undefined)	> 100 µM (inactive)	> 100 µM (inactive)	11.2 µM (inactive)	81.3 µM (inactive)	> 100 µM (inactive)	> 100 µM (inactive)	> 100 µM (inactive)	> 100 µM (inactive)	> 100 µM (inactive)	> 100 µM (inactive)	10.8 µM (inactive)	> 100 µM (inactive)	23.3 µM (inactive)	> 100 µM (inactive)	> 100 µM (inactive)	41.7 µM (inactive)	> 100 µM (inactive)	> 100 µM (inactive)	15.3 µM (inactive)	60.7
COC(=O)[C@@H]1[C@H]2CC[C@]3(C)[C@@H](OC(C)=O)CC[C@H]3[C@@H]2CC[C@H]1C1(C)SCCS1	31.9 µM (inactive)	18.5 µM (inactive)	29.3 µM (inactive)	33.1 µM (inactive)	22.8 µM (inactive)	20.4 µM (inactive)	34.7 µM (inactive)	28.6 µM (inactive)	16.3 µM (inactive)	22.7 µM (inactive)	24.8 µM (inactive)	17.1 µM (inactive)	19 µM (inactive)	44.4 µM (inactive)	37.2 µM (inactive)	15 µM (inactive)	18.9 µM (inactive)	23.7 µM (inactive)	18.7 µM (inactive)	32
CN(C)CCCNC(=O)c1cc2/c(=C\c3ccc(N(C)C)cc3)c3ccccc3n2[n+]1C	31.1 µM (inactive)	1.58 µM (inactive)	51.2 µM (inactive)	15.4 µM (inactive)	56.6 µM (inactive)	> 100 µM (inactive)	30.8 µM (inactive)	24.7 µM (inactive)	24.9 µM (inactive)	52.8 µM (inactive)	34.8 µM (inactive)	21.5 µM (inactive)	17.6 µM (inactive)	32.6 µM (inactive)	> 100 µM (inactive)	27.5 µM (inactive)	23.1 µM (inactive)	> 100 µM (inactive)	22.9 µM (inactive)	> 100
CN(C)N1C(=O)c2ccccc2NC1c1ccccc1 (centres undefined)	> 100 µM (inactive)	> 100 µM (inactive)	> 100 µM (inactive)	> 100 µM (inactive)	> 100 µM (inactive)	> 100 µM (inactive)	> 100 µM (inactive)	> 100 µM (inactive)	> 100 µM (inactive)	> 100 µM (inactive)	> 100 µM (inactive)	> 100 µM (inactive)	> 100 µM (inactive)	> 100 µM (inactive)	> 100 µM (inactive)	> 100 µM (inactive)	> 100 µM (inactive)	> 100 µM (inactive)	> 100 µM (inactive)	> 100
O=C1c2nc3n(c2C(=O)c2c1nc1n2CCC1)CCC3	5.13 µM (inactive)	3.64 µM (inactive)	1.82 µM (inactive)	2.71 µM (inactive)	16.9 µM (inactive)	> 10 µM (inactive)	13.3 µM (inactive)	4.41 µM (inactive)	2.02 µM (inactive)	5.25 µM (inactive)	5.46 µM (inactive)	> 10 µM (inactive)	3.66 µM (inactive)	8.28 µM (inactive)	10.9 µM (inactive)	3.14 µM (inactive)	0.904 µM (active)	> 10 µM (inactive)	13.1 µM (inactive)	5.79
Clc1ccc(-c2nc3cc(C45CC6CC(CC(C6)C4)C5)ccc3[nH]2)cc1	19.3 µM (inactive)	50.5 µM (inactive)	17.6 µM (inactive)	21.7 µM (inactive)	> 100 µM (inactive)	20.5 µM (inactive)	75 µM (inactive)	13.1 µM (inactive)	36.1 µM (inactive)	39.4 µM (inactive)	0.551 µM (active)	> 100 µM (inactive)	> 100 µM (inactive)	> 100 µM (inactive)	51.8 µM (inactive)	3.72 µM (inactive)	24.5 µM (inactive)	62.7 µM (inactive)	17.7 µM (inactive)	9.46
CSc1nc2ccccc2c(=O)n1/N=C1\C(=O)N(CN2CCOCC2)c2ccc(Cl)cc21	17.6 µM (inactive)	48.2 µM (inactive)	15.2 µM (inactive)	54.5 µM (inactive)	26 µM (inactive)	> 100 µM (inactive)	56.2 µM (inactive)	29.5 µM (inactive)	28.4 µM (inactive)	34.8 µM (inactive)	10.9 µM (inactive)	47.4 µM (inactive)	20.6 µM (inactive)	36.9 µM (inactive)	26.1 µM (inactive)	23.7 µM (inactive)	> 100 µM (inactive)	44.2 µM (inactive)	67 µM (inactive)	22.9
COC(=O)c1ccc(NC(=O)O/N=C(\Cl)C(C)C)cc1	1.93 µM (inactive)	6.19 µM (inactive)	20.9 µM (inactive)	1.97 µM (inactive)	17.1 µM (inactive)	5.71 µM (inactive)	4.84 µM (inactive)	15.1 µM (inactive)	11.3 µM (inactive)	2.03 µM (inactive)	1.79 µM (inactive)	7.08 µM (inactive)	16.8 µM (inactive)	26.2 µM (inactive)	1.74 µM (inactive)	4.31 µM (inactive)	1.56 µM (inactive)	10.8 µM (inactive)	1.81 µM (inactive)	1.83
CNC(=O)OCC1=C(COC(=O)NC)C(C)N(c2ccccc2)C1 (centres undefined)	46.1 µM (inactive)	72.9 µM (inactive)	29 µM (inactive)	30.4 µM (inactive)	25.4 µM (inactive)	46.5 µM (inactive)	35.3 µM (inactive)	30.5 µM (inactive)	38.3 µM (inactive)	47.2 µM (inactive)	23 µM (inactive)	41.2 µM (inactive)	22.6 µM (inactive)	37.7 µM (inactive)	33.7 µM (inactive)	22.6 µM (inactive)	33.9 µM (inactive)	43.4 µM (inactive)	28.8 µM (inactive)	31
